Columns and labels:
nitric oxide release = test: Immunosuppression in chondrocytes: nitric oxide (Greiss reagent); type: cell-based, human; details: cells stimulated with TNF-α and oncostatin M or IL-1β; 72 hours; FIG. 20B
Method: Human MSCs were plated in 10 cm dishes in chondrogenic induction medium (Lonza; DMEM, dexamethasone, ascorbate, insulin-transferrin-selenium [ITS supplement], gentamycin-amphotericin [GA-1000], sodium pyruvate, proline and L-glutamine) and treated with TGF-β3 (20 μg/mL) to induce chondrogenic differentiation. Cells from 4 dishes were pooled and re-plated in 24-well plates in Chondrogenic Induction Medium and treated with various concentrations of the compound of Formula (I). 4 hours later, cells were stimulated by adding TNF-α (20 μg/mL)+Oncostatin M ([…]) or IL-1β (10 μg/mL) and incubated at 37° C., 5% CO2 for 72 hours. Chondrocytes were digested with papain (Sigma). GAG content was measured using the dimethylmethylene blue (DMMB) kit (Chondrex). Briefly, the digested chondrocytes were mixed with DMMB in formate buffer and absorbance at 535 nm was measured using Cytation 3 (Biotek). Nitric oxide was measured using Greiss reagent (Promega) according to manufacturer's protocol.

[1] = system: subjects with moderately to severely symptomatic knee OA; test: Initial clinical study (first cohort, single IA injection); type: in vivo, human; set-up: Change in cartilage thickness: unit not given here
Method: Twenty-one subjects were enrolled in the first cohort of a clinical trial for the treatment of osteoarthritis. All subjects completed a minimum of 12 weeks of follow-up after treatment. This study was a first-in-human, multicenter, placebo-controlled, single-dose, dose-escalation safety study in subjects suffering from moderately to severely symptomatic knee OA. Subjects were treated with a single ultrasound-guided intra-articular injection of a suspension of a non-stoichiometric hydrate of Form I having between 1% and about 20% by weight water or placebo.
A single-use injectable composition containing the compound of Formula (I) suspended in a 0.5% sodium carboxymethylcellulose and 0.05% polysorbate 80 in 10 mM phosphate buffered saline solution, pH 7.4, was prepared. For this study, a dosage of 0.03-0.230 mg of the compound of Formula (I) was administered per 2 mL injection.
Subjects were evaluated using the following primary and secondary assessments:
1. Evaluation of the safety and tolerability of the therapeutic composition administered by intra-articular injection into the target knee joint of moderately to severely symptomatic osteoarthritis (OA) subjects. This included:
a) monitoring for treatment-emergent adverse events (AEs);
b) assessing bone loss by measuring bone biomarkers (cartilage oligomeric matrix protein [COMP], N-terminal propeptides of procollagen type I [PINP], and β-C-terminal telopeptide [β-CTX]) at Weeks 4 and 12 by computed tomography (CT) of both knee joints and at Week 12 after study medication injection compared to baseline; and
c) assessing bone marrow edema by magnetic resonance imaging (MRI) at Week 12 compared to baseline.
2. Assessment of the pharmacokinetic (PK) behavior of the compound of Formula (I) under the conditions of this study at Days 1, 2, 4, and 12.
Estimation of clinical responses to treatment with the therapeutic composition, including:
a) change from baseline in pain visual analog scale (VAS) score assessed at Weeks 1, 2, 4, 8, and 12;
b) change from baseline in the Western Ontario and McMaster Universities Arthritis Index (WOMAC) assessed at Weeks 1, 2, 4, 8, and 12;
c) change from baseline OA pain as assessed by the WOMAC pain subscale at Weeks 1, 2, 4, 8, and 12;
d) change from baseline OA as assessed by the physician global assessment of disease activity at Weeks 1, 2, 4, 8, and 12;
e) change from baseline in total cartilage volume and thickness in the compartments of the target knee joint as documented by Mill at Week 12;
f) changes from baseline in anabolic or catabolic biomarkers indicative of cartilage synthesis or degradation (cartilage oligomeric matrix protein [COMP], N-terminal propeptides of procollagen type I [PINP], and β-C-terminal telopeptide [(3-CTX]) at Weeks 4 and 12;
g) change from baseline in plasma levels of cytokines related to inflammation (interleukin [IL] 1b, IL6, IL8, tumor necrosis factor (TNF), and interferon-alpha [IFNα]) at Weeks 4 and 12; and
h) change from baseline in bone marrow edema as documented by Mill scan of the target knee at baseline and at Week 12.

[2] = system: protease expression (MMP1, MMP3, MMP13); test: Inhibition of protease release (qRT-PCR, TNF-α + Oncostatin M stimulated chondrocytes); type: cell-based, human; details: 72 hours, FIGS. 19A-C
Method: Human MSCs were plated in 10 cm dishes in chondrogenic induction medium (Lonza; DMEM, dexamethasone, ascorbate, insulin-transferrin-selenium [ITS supplement], gentamycin-amphotericin [GA-1000], sodium pyruvate, proline and L-glutamine) and treated with TGF-β3 (20 μg/mL) to induce chondrogenic differentiation. Cells from 4 dishes were pooled and re-plated in 24-well plates in Chondrogenic Induction Medium and treated with various concentrations of the compound of Formula (I). 4 hours later, MMP production was stimulated by adding TNF-α (20 μg/mL)+Oncostatin M (10 ng/mL) and cells were incubated at 37° C., 5% CO2 for 72 hours. Cells were then pelleted and washed, and total RNA was isolated and purified using RNeasy Plus Mini Kit (Qiagen). cDNA was synthesized from 1 μg of total RNA using QuantiTect Reverse Transcription kit (Qiagen). qRT-PCR was performed with QuantiTect SYBR Green PCR Kit (Qiagen) and gene-specific primers, using CFX384 thermal cycler (Biorad). Transcripts were quantitated by comparative Ct method, and normalized to endogenous controls, β-actin and GAPDH. Fold changes were normalized to unstimulated cells. […] FIG. 19A depicts MMP1 production. FIG. 19B depicts MMP3 production. FIG. 19C depicts MMP13 production.

[3] = system: chondrogenic and osteogenic gene expression in human MSCs; test: Chondrogenic and osteogenic gene expression, qRT-PCR in human MSCs; type: cell-based; details: 10 nM and 30 nM, 21 days
Method: Human MSCs were plated in 10 cm dishes in chondrogenic induction medium (Lonza; DMEM, dexamethasone, ascorbate, insulin-transferrin-selenium [ITS supplement], gentamycin-amphotericin [GA-1000], sodium pyruvate, proline and L-glutamine) and treated with the compound of Formula (I) in DMSO (10 nM and 30 nM) or TGF-β3 (20 μg/mL) as a positive control. Cells were incubated at 37° C., 5% CO2 for 21 days, with media changes every 5 days. Cells were pelleted and washed, and total RNA was isolated and purified using RNeasy Plus Mini Kit (Qiagen). cDNA was synthesized from 1 μg of total RNA using QuantiTect Reverse Transcription kit (Qiagen). qRT-PCR was performed with QuantiTect SYBR Green PCR Kit (Qiagen) and gene-specific primers, using CFX384 thermal cycler (Biorad). Transcripts were quantitated by comparative Ct method and normalized to endogenous controls, β-actin and GAPDH. Fold changes were normalized to DMSO treated cells.

[4] = subject Treatment 1, Week 12 vs baseline
[5] = subject Treatment 2, Week 12 vs baseline
[6] = subject Treatment 3, Week 12 vs baseline
[7] = subject Treatment 4, Week 12 vs baseline

Q: Which “release of nitric oxide” value (nitric oxide release) does the source give for `CC(C)CC(=O)Nc1cncc(-c2ccc3[nH]nc(-c4nc5c(-c6cccc(F)c6)cncc5[nH]4)c3c2)c1` [compound of Formula (I)] here?
A: reduced

Q: What about the “Change in WOMAC score” value [1, 4] of the same compound?
A: −56

Q: What about the “Change in cartilage thickness” value [1, 4] of the same compound?
A: 1.2

Q: What about the “Week 12 cartilage thickness (mm)” value ([1]; subject Treatment 1, baseline 14.01) of the same compound?
A: 15.21 mm

Q: And the “Week 12 WOMAC score” value ([1]; subject Treatment 1, baseline 56)?
A: 0

Q: What about the “Change in WOMAC score” value [1, 5] of the same compound?
A: −30

Q: What about the “Change in cartilage thickness” value [1, 5] of the same compound?
A: 1.2

Q: And the “Week 12 cartilage thickness (mm)” value ([1]; subject Treatment 2, baseline 12.12)?
A: 13.32 mm

Q: And the “Week 12 WOMAC score” value ([1]; subject Treatment 2, baseline 51)?
A: 21

Q: What about the “Change in WOMAC score” value [1, 6] of the same compound?
A: −27

Q: And the “Change in cartilage thickness” value [1, 6]?
A: 1.3

Q: What about the “Week 12 cartilage thickness (mm)” value ([1]; subject Treatment 3, baseline 13.22) of the same compound?
A: 14.52 mm

Q: And the “Week 12 WOMAC score” value ([1]; subject Treatment 3, baseline 59)?
A: 32

Q: What about the “Change in WOMAC score” value [1, 7] of the same compound?
A: −38

Q: What about the “Change in cartilage thickness” value [1, 7] of the same compound?
A: 1.44

Q: What about the “Week 12 cartilage thickness (mm)” value ([1]; subject Treatment 4, baseline 9.89) of the same compound?
A: 11.33 mm

Q: What about the “Week 12 WOMAC score” value ([1]; subject Treatment 4, baseline 61) of the same compound?
A: 23

Q: And the “protease expression (MMP1, MMP3, MMP13)” value [2]?
A: dose-dependent inhibition

Q: What about the chondrogenic gene expression ([3]; FIG. 18A) of the same compound?
A: upregulated

Q: And the osteogenic gene expression ([3]; FIG. 18B)?
A: downregulated
